In patent US20110065749A1, “METHOD AND PHARMACEUTICAL COMPOSITION FOR TREATMENT OF MENTAL DISORDERS” (ACTIVE CO. LTD., priority 2008, published 2011):
Where a name gives a salt, the structure may show the parent alone.

What was measured:
Refractory Depression = assay: Case 2: refractory depression patient, HAMD; format: in vivo, human
Description: For evaluation of the state of depression, for example, Hamilton's rating scale for depression (HAMD) is available. The HAMD was developed by Max Hamilton in 1960 for the purpose of measuring the severity of a patient diagnosed with depression (Hamilton, M., Journal of Neurology, Neurosurgery & Psychiatry, 23-56-62 (1960) and Hamilton, M., “Development of rating scale for primary depressive illness”, British Journal of Social and Clinical Psychology, 6: 278-296 (1967)). In view of its high usefulness, it is a representative scale of evaluation for depression, widely used in clinical researches and practices. The 17 item version is used for clinical trials of antidepressants in Japan, whereas the 21 item version and the 24 item version are used in Europe or other countries. When the severity is calculated using Hamilton's rating scale for depression (HAMD), each item is evaluated with three grades of 0-2, or five grades of 0-4. For example, the case is diagnosed as severe where the point is 20 or higher and, as the point decreases, the symptom is diagnosed as being improved. Case 2: Refractory Depression Patient was a person, who was unresponsive to any combination of SSRIs, SNRIs, tricyclic antidepressants, and antianxiety agents in their respective maximum doses. The score of HAMD was 23 points. […] Increasing the dose of Cephadol® to 150 mg/day improved the score of HAMD to 3 points. The improvement lasted even after other antidepressants were removed. Even 3 months later, the score of HAMD was still 3 points. When the dose of Cephadol® was reduced to 75 mg/day, the score of HAMD became 13 points after one week.

Alzheimer-Type Dementia = assay: Case 4: Alzheimer-type dementia patient; format: in vivo, human; conditions: 50 mg before sleeping, added to donepezil hydrochloride
Description: Case 4: Alzheimer-Type Dementia

Alcoholism = assay: Case 6: alcoholism patient; format: in vivo, human
Description: Case 6: Alcoholism Patient was a office worker, who was drinking 1 to 2 liters of beer and 3 to 5 glasses of distilled spirit or whisky with water every day. They were drinking alcohol in daytime on Sundays, and suffering from a complication of liver dysfunction.

Bulimia = assay: Case 7: bulimia (1) patient; format: in vivo, human; conditions: 150 mg/day
Description: Patient was a person, who had been suffering from bulimia. Antidepressant, antianxiety, and other drugs were all ineffective. […] The effect of Cephadol® appeared in about two days.

Fibromyalgia [1] = assay: Case 16: fibromyalgia (2) patient; format: in vivo, human
Description: […] There were persistent systemic malaise, lassitude, depressed mood, sleeplessness, neck stiffness and systemic pain. Their score of depression on Hamilton D scale was 25 to 28. No hematological abnormality was detected. As a result of overall judgment based on examinations including a tender point examination, they were diagnosed as having fibromyalgia. They were unresponsive to tricyclic or tetracyclic antidepressants, SSRIs, SNRIs, and Moclobemide. Then, they continued the treatment with 60 mg/day fluoxetine. […] It was concluded that the onset of their depression was due to the systemic pain, and the depression was improved by the drastic improvement of the systemic pain.

Fibromyalgia [2] = assay: Case 18: fibromyalgia (4) patient; format: in vivo, human
Description: Case 18: Fibromyalgia (4)
A person (housewife) is a patient with depression, having received regular medical treatment since seven years ago. […] However, a diagnosis with autoimmune disease or inflammatory disease was negative from their blood test. Due to back pain and fingertip pain, they were unable to make household work, and it was painful for them to hold even a light object by hand. They had pain at 15 points among the 18 tender points of the whole body, and was diagnosed with fibromyalgia. […] They had to stay in bed all day long, and such a condition lasted for the long term.

vertebral artery = conditions: dog experiments; cited from earlier work
[3] = tested on: nystagmus by experimental disorder of balance function; conditions: rabbit experiments; cited from earlier work

OC(CCCN1CCCCC1)(c1ccccc1)c1ccccc1 [Cephadol®, 1,1-diphenyl-4-piperidine-1-ylbuthan-1-ol monohydrochloride]
depressive symptom (Refractory Depression; 75 mg/day, HAMD 23 points before): significant improvement
score of HAMD (Refractory Depression; 150 mg/day, 3 months later, other antidepressants removed): 3 points
side effects (Refractory Depression; 75-150 mg/day): no side effects
score of HAMD (Refractory Depression; dose increased to 150 mg/day, 23 points before): 3 points
score of HAMD (Refractory Depression; dose reduced to 75 mg/day, after one week): 13 points
excitation caused by donepezil hydrochloride (Alzheimer-Type Dementia): reduced the excitation
overdrinking (Alcoholism; 150 mg/day continued for three months): without any emergence of overdrinking
side effects (Alcoholism; 150 mg/day for three months): without any side effects
impulse to drink alcohol (Alcoholism; 150 mg/day, on the next day): eliminated their impulse to drink alcohol
restlessness and anxiety (Alcoholism; 150 mg/day, on the next day): eliminated their restlessness and anxiety
side effects (Bulimia): no side effects
overeating (Bulimia; previously two to three times a day): significantly improved overeating
score of Hamilton D scale (Fibromyalgia [1]; 100 mg/day added to fluoxetine, 25 to 28 before): 16
neck stiffness and systemic pain (Fibromyalgia [1]; 100 mg/day for one week, added to 60 mg/day fluoxetine): reduced neck stiffness and systemic pain
activity of daily living (Fibromyalgia [1]; 100 mg/day, after two weeks): improved drastically
malaise (Fibromyalgia [2]; 75 mg/day): significant improvement in malaise
mobility of large joints (objective) (Fibromyalgia [2]; 125 mg/day): the mobility of large joints increased
back pain and fingertip pain (Fibromyalgia [2]; dose increased to 125 mg/day): improved the back pain and fingertip pain
blood flow of the vertebral artery (vertebral artery): increase the blood flow thereof
spasm of the vertebral artery (vertebral artery): remit the spasm of the vertebral artery
emergence of nystagmus by experimental disorder of balance function [3]: inhibited the emergence of nystagmus by experimental disorder of balance function
